Key:
[1] = biological target: B-Raf V600E (Homo sapiens, UniProt P15056, V600E); experiment: B-Raf V600E kinase activity assay; format: biochemical; details: under the test conditions employed; read-out: IC50 toward kinase B-Raf V600E
[2] = biological target: Flt1 (Homo sapiens, UniProt P17948); experiment: Flt1 kinase activity assay; format: biochemical; details: under the test conditions employed; read-out: IC50 toward kinase Flt1
[3] = biological target: T1, Fms (Homo sapiens, UniProt P07333); experiment: Fms biochemical assay (AlphaScreen or 33P-ATP); details: under the test conditions employed; read-out: IC50 toward kinase Fms
T1 construct: purchased Upstate Biotech 14-551
Description: Each sample was at 5% DMSO.

[4] = biological target: T2, Kit (Homo sapiens, UniProt P10721); experiment: c-kit biochemical assay (AlphaScreen or 33P-ATP); details: under the test conditions employed; read-out: IC50 toward kinase Kit
T2 construct: P1332.N6 BI PTP KIT M552-K948-X COD; made in house; host or cells: E. coli BL21(DE3)RIL, co-expressed with PTP1B
T2 sequence (P10721 552-948): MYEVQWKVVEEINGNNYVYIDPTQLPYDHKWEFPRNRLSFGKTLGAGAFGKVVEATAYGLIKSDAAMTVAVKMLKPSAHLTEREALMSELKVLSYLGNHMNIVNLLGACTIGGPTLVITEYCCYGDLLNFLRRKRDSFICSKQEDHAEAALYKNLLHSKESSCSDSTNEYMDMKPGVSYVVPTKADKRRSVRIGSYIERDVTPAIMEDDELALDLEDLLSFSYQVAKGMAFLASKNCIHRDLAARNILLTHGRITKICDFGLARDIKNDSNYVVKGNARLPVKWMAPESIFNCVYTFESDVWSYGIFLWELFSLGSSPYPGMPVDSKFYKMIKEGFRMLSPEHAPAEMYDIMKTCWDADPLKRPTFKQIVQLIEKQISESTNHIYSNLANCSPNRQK
Outline: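 Kinase activity read by AlphaScreen or 33P-ATP incorporation, with c-kit enzyme at 1 ng per sample. The enzyme was either commercial or a recombinant human kit construct made from a gene-synthesized coding sequence.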

[5] = biological target: B-Raf (Homo sapiens, UniProt P15056); experiment: B-Raf kinase activity assay; format: biochemical; details: under the test conditions employed; read-out: IC50 toward kinase B-Raf
Sequence of B-Raf (P15056 whole entry): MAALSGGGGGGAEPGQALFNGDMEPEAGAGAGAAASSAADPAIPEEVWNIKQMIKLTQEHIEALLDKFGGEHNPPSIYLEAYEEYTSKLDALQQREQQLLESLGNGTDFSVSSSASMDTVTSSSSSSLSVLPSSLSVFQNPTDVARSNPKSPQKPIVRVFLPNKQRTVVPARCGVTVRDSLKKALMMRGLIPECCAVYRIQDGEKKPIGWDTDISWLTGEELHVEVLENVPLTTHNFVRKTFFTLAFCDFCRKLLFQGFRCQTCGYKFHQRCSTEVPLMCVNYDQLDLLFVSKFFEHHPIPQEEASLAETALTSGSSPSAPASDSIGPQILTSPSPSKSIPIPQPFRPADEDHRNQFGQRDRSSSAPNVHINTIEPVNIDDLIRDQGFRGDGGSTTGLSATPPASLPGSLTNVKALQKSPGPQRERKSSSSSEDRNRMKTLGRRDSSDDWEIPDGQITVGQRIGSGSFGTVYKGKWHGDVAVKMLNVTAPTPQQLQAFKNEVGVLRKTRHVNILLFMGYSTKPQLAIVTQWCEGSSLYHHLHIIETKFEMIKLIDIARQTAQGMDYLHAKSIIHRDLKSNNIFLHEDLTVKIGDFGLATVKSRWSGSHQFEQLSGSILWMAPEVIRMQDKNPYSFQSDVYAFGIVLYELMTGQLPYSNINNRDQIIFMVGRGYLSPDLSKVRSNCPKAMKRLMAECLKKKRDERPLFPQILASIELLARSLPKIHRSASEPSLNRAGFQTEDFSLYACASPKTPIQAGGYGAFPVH

[6] = biological target: FGFR (Homo sapiens, UniProt P11362); experiment: FGFR kinase activity assay; format: biochemical; details: under the test conditions employed; read-out: IC50 toward kinase FGFR
Sequence of FGFR (P11362 22-822): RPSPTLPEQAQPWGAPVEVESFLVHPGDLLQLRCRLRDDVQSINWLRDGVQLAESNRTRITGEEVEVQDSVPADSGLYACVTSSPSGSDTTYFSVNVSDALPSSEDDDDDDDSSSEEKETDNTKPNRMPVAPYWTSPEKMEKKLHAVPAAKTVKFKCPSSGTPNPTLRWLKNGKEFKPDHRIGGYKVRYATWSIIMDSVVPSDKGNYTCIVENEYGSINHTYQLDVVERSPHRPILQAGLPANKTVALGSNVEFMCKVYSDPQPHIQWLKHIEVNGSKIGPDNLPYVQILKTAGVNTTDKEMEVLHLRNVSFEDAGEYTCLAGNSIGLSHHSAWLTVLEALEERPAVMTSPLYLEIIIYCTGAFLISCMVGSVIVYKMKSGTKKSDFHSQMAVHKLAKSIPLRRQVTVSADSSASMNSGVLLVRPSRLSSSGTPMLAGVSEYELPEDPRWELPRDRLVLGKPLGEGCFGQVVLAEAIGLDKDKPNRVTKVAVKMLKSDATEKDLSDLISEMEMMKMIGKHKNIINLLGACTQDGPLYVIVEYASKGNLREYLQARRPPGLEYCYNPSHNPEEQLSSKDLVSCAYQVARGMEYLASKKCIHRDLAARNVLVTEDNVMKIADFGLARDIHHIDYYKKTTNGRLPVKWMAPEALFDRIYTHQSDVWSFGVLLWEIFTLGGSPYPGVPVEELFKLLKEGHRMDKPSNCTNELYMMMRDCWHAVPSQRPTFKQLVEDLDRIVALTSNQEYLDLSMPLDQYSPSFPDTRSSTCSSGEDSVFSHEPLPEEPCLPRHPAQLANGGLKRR

[7] = biological target: Kdr (Homo sapiens, UniProt P35968); experiment: Kdr kinase activity assay; format: biochemical; details: under the test conditions employed; read-out: IC50 toward kinase Kdr
[8] = biological target: T3, TrkA (Homo sapiens, UniProt P04629); experiment: TrkA biochemical assay (AlphaScreen); details: under the test conditions employed; read-out: IC50 toward kinase TrkA
T3 construct: purchased Upstate Biotech 14-571
T3 sequence (P04629 33-796): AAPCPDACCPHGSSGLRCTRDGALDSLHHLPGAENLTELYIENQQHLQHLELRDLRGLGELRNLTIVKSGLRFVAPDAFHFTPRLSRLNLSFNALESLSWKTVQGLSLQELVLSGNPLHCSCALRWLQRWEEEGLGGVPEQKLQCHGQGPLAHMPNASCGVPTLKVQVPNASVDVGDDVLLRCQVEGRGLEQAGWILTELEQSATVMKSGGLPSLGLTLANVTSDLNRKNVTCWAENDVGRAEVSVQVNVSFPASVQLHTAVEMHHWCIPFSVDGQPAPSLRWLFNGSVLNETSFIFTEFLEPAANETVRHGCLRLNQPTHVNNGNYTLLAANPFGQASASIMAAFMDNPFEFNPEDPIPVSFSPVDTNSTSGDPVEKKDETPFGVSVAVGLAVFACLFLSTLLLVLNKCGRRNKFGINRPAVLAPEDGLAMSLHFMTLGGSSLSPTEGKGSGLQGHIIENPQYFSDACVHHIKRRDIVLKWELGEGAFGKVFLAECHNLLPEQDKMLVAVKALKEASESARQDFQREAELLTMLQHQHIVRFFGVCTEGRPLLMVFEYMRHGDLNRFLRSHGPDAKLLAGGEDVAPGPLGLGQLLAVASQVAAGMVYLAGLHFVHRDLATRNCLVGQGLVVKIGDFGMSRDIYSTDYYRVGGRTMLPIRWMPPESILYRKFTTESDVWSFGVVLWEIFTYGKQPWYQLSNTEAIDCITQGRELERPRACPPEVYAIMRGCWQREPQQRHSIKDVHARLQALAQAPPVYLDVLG
Experimental: Compounds tested were dissolved in DMSO (1 μL) and added to a white 384-well plate (Costar #3705). […] Each sample was at 5% DMSO. The plate was then incubated for 40 minutes at room temperature.

[9] = biological target: HGK (Homo sapiens, UniProt O95819); experiment: HGK (MAP4K4) biochemical assay (AlphaScreen); details: under the test conditions employed; read-out: IC50 toward kinase HGK
Sequence of HGK (O95819 whole entry): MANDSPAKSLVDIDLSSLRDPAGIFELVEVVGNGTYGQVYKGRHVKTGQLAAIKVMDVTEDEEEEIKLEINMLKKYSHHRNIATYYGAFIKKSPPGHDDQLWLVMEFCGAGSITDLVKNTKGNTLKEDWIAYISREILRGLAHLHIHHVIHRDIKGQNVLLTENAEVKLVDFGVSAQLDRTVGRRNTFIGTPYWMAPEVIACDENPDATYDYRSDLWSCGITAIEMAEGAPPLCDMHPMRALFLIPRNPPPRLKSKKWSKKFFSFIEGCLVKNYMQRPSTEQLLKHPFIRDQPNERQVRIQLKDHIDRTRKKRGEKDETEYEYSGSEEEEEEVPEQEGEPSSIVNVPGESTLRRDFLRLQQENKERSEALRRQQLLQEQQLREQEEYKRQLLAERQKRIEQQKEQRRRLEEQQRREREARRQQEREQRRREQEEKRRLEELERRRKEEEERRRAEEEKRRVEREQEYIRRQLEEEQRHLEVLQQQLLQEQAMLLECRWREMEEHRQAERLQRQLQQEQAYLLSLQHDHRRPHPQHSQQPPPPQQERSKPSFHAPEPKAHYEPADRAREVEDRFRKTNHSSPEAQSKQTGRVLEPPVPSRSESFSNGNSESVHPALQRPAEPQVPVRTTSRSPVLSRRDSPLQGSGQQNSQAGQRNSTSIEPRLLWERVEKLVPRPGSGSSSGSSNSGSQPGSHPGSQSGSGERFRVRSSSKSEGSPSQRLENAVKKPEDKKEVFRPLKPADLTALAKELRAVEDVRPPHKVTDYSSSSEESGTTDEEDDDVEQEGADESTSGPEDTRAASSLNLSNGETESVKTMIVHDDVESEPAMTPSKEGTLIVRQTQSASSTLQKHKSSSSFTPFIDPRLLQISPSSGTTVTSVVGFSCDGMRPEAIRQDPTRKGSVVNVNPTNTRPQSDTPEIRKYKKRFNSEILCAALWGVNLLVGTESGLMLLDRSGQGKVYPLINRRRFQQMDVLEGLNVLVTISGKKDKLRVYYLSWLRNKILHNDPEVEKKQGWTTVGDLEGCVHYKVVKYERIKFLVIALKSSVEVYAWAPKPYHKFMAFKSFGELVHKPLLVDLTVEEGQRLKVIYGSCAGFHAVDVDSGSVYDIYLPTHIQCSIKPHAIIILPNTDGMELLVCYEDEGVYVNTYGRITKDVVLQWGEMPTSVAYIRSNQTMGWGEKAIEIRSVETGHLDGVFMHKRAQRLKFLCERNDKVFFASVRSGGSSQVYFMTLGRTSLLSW
Outline: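 AlphaScreen kinase assay with 0.5 ng MAP4K4 per sample and 10 nM biotin-ERM substrate, reacted 40 min at room temperature. Stopped with EDTA buffer containing phospho-ERM antibody (1:1000) plus donor and protein A acceptor beads (1 μg/ml final); signal tracks substrate phosphorylation.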

[10] = biological target: Btk (Homo sapiens, UniProt Q06187); experiment: Btk kinase activity assay; format: biochemical; details: under the test conditions employed; read-out: IC50 toward kinase Btk
Sequence of Btk (Q06187 whole entry): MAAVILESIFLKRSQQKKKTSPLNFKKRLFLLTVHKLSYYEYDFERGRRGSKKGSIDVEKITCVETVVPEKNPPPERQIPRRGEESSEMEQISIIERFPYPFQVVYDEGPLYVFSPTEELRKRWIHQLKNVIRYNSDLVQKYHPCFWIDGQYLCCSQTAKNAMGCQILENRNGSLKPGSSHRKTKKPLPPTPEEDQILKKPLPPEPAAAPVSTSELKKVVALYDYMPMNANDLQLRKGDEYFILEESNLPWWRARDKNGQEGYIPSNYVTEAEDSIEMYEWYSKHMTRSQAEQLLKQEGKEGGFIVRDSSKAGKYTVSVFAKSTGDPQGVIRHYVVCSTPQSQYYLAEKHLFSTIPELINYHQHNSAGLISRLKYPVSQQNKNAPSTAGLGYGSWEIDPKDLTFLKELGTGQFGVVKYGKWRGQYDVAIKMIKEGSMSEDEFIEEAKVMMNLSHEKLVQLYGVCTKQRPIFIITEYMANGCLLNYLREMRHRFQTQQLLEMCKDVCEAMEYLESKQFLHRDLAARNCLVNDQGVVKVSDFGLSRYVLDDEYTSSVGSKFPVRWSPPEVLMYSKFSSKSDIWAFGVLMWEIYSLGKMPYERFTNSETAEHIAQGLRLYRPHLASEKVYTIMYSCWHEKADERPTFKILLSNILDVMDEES

Sequence of B-Raf V600E (P15056 whole entry V600E): as the sequence (P15056 whole entry) above, with V600E counted along it

Compound	IC50 [1]	IC50 [2]	IC50 [3]	IC50 [4]	IC50 [5]	IC50 [6]	IC50 [7]	IC50 [8]	IC50 [9]	IC50 [10]
O=C(c1c(F)ccc(OCc2ccccc2)c1F)c1c[nH]c2ncc(-c3cccnc3)cc12 [P-1467, (3-Benzyloxy-2,6-difluorophenyl)-(5-pyridin-3-yl-1H-pyrrolo[2,3-b]pyridin-3-yl)-methanone]	≤ 10 µM	≤ 10 µM	≤ 10 µM	≤ 10 µM	≤ 10 µM	≤ 10 µM	–	–	–	–
COCCOc1ccc(F)c(C(=O)c2c[nH]c3ncc(OC)cc23)c1F [P-1584, [2,6-Difluoro-3-(2-methoxy-ethoxy)-phenyl]-(5-methoxy-1H-pyrrolo[2,3-b]pyridin-3-yl)-methanone]	≤ 10 µM	≤ 10 µM	–	–	≤ 10 µM	≤ 10 µM	–	–	–	–
Cc1nc(C)c(COc2cccc(C(=O)c3c[nH]c4ncc(Cl)cc34)c2OCC2CC2)s1 [P-2140, (5-Chloro-1H-pyrrolo[2,3-b]pyridin-3-yl)-[2-cyclopropylmethoxy-3-(2,4-dimethyl-thiazol-5-ylmethoxy)-phenyl]-methanone]	–	–	≤ 10 µM	≤ 10 µM	–	–	–	–	–	≤ 10 µM
Cn1cc(-c2cnc3[nH]cc(Cc4c(F)ccc(OCC(F)(F)F)c4Cl)c3c2)cn1 [P-2146, 3-[2-Chloro-6-fluoro-3-(2,2,2-trifluoro-ethoxy)-benzyl]-5-(1-methyl-1H-pyrazol-4-yl)-1H-pyrrolo[2,3-b]pyridine]	–	≤ 10 µM	≤ 10 µM	≤ 10 µM	–	–	≤ 10 µM	≤ 10 µM	≤ 10 µM	–
COc1cnc2[nH]cc(C(=O)c3c(F)ccc(OCC(F)(F)F)c3Cl)c2c1 [P-2149, [2-Chloro-6-fluoro-3-(2,2,2-trifluoro-ethoxy)-phenyl]-(5-methoxy-1H-pyrrolo[2,3-b]pyridin-3-yl)-methanone]	–	≤ 10 µM	≤ 10 µM	≤ 10 µM	–	–	≤ 10 µM	–	≤ 10 µM	–
COCCOc1ccc(F)c(C(=O)c2c[nH]c3ncccc23)c1Cl [P-2160, [2-Chloro-6-fluoro-3-(2-methoxy-ethoxy)-phenyl]-(1H-pyrrolo[2,3-b]pyridin-3-yl)-methanone]	–	–	≤ 10 µM	≤ 10 µM	–	≤ 10 µM	≤ 10 µM	–	–	–
Cc1nc(C)c(COc2ccc(F)c(C(=O)c3c[nH]c4ncc(Cl)cc34)c2F)s1 [P-2162, (5-Chloro-1H-pyrrolo[2,3-b]pyridin-3-yl)-[3-(2,4-dimethyl-thiazol-5-ylmethoxy)-2,6-difluoro-phenyl]-methanone]	–	–	≤ 10 µM	≤ 10 µM	–	–	≤ 10 µM	–	–	≤ 10 µM
Cn1ccnc1COc1ccc(F)c(C(=O)c2c[nH]c3ncc(Cl)cc23)c1F [P-2165, (5-Chloro-1H-pyrrolo[2,3-b]pyridin-3-yl)-[2,6-difluoro-3-(1-methyl-1H-imidazol-2-ylmethoxy)-phenyl]-methanone]	≤ 10 µM	≤ 10 µM	≤ 10 µM	≤ 10 µM	≤ 10 µM	–	≤ 10 µM	–	–	–
CS(=O)(=O)c1cnc2[nH]cc(Cc3cc(F)c(OCc4nc5ccccc5[nH]4)cc3F)c2c1 [P-2170, 2-[2,5-Difluoro-4-(5-methanesulfonyl-1H-pyrrolo[2,3-b]pyridin-3-ylmethyl)-phenoxymethyl]-1H-benzoimidazole]	–	≤ 10 µM	≤ 10 µM	–	≤ 10 µM	–	–	≤ 10 µM	≤ 10 µM	–
COc1cc(Cc2c[nH]c3ncc(S(C)(=O)=O)cc23)c(F)cc1OCc1nc2ccccc2[nH]1 [P-2186, 2-[5-Fluoro-4-(5-methanesulfonyl-1H-pyrrolo[2,3-b]pyridin-3-ylmethyl)-2-methoxy-phenoxymethyl]-1H-benzoimidazole]	≤ 10 µM	–	≤ 10 µM	–	≤ 10 µM	–	–	≤ 10 µM	≤ 10 µM	–

Other lines, results leading:

IC50 [1]	IC50 [2]	IC50 [3]	IC50 [4]	IC50 [5]	IC50 [6]	IC50 [7]	IC50 [8]	IC50 [9]	IC50 [10]	Compound
≤ 10 µM	≤ 10 µM	≤ 10 µM	≤ 10 µM	–	–	–	–	–	–	Clc1ccc(COc2ccc(Cc3c[nH]c4ncccc34)cc2)cc1 [P-1462, 3-[4-(4-Chloro-benzyloxy)-benzyl]-1H-pyrrolo[2,3-b]pyridine]
≤ 10 µM	≤ 10 µM	–	≤ 10 µM	–	–	–	–	–	–	COc1cnc2[nH]cc(Cc3ccc(OCc4ccc(Cl)cc4)c(OC)c3)c2c1 [P-1531, 3-[4-(4-Chloro-benzyloxy)-3-methoxy-benzyl]-5-methoxy-1H-pyrrolo[2,3-b]pyridine]
≤ 10 µM	≤ 10 µM	≤ 10 µM	≤ 10 µM	≤ 10 µM	–	–	–	–	–	COc1cc(Cc2c[nH]c3ncc(Cl)cc23)ccc1OCc1ccc(Cl)cc1 [P-1532, 5-Chloro-3-[4-(4-chloro-benzyloxy)-3-methoxy-benzyl]-1H-pyrrolo[2,3-b]pyridine]
≤ 10 µM	≤ 10 µM	≤ 10 µM	≤ 10 µM	≤ 10 µM	–	–	–	–	–	COc1cc(Cc2c[nH]c3ncccc23)ccc1OCc1ccc(Cl)cc1F [P-1544, 3-[4-(4-Chloro-2-fluoro-benzyloxy)-3-methoxy-benzyl]-1H-pyrrolo[2,3-b]pyridine]
≤ 10 µM	≤ 10 µM	≤ 10 µM	≤ 10 µM	≤ 10 µM	–	–	–	–	–	COc1ccc(COc2ccc(Cc3c[nH]c4ncccc34)cc2OC)cc1 [P-1569, 3-[3-Methoxy-4-(4-methoxy-benzyloxy)-benzyl]-1H-pyrrolo[2,3-b]pyridine]
≤ 10 µM	≤ 10 µM	≤ 10 µM	–	≤ 10 µM	≤ 10 µM	–	–	–	–	COc1cnc2[nH]cc(C(=O)c3c(F)ccc(OCc4ccccc4)c3F)c2c1 [P-1597, (3-Benzyloxy-2,6-difluoro-phenyl)-(5-methoxy-1H-pyrrolo[2,3-b]pyridin-3-yl)-methanone]
≤ 10 µM	≤ 10 µM	≤ 10 µM	–	≤ 10 µM	–	–	–	–	–	COc1cc(Cc2c[nH]c3ncccc23)ccc1OCc1ccccc1 [P-1613, 3-(4-benzyloxy-3-methoxy-benzyl)-1H-pyrrolo[2,3-b]pyridine]
≤ 10 µM	–	≤ 10 µM	≤ 10 µM	≤ 10 µM	–	≤ 10 µM	≤ 10 µM	≤ 10 µM	–	Fc1cc(OCc2nc3ccccc3[nH]2)c(F)cc1Cc1c[nH]c2ncc(Cl)cc12 [P-2100, 2-[4-(5-Chloro-1H-pyrrolo[2,3-b]pyridin-3-ylmethyl)-2,5-difluoro-phenoxymethyl]-1H-benzoimidazole]
–	≤ 10 µM	≤ 10 µM	≤ 10 µM	–	–	≤ 10 µM	≤ 10 µM	≤ 10 µM	–	COc1cnc2[nH]cc(Cc3cc(F)c(OCc4nc5ccccc5[nH]4)cc3F)c2c1 [P-2101, 2-[2,5-Difluoro-4-(5-methoxy-1H-pyrrolo[2,3-b]pyridin-3-ylmethyl)-phenoxymethyl]-1H-benzoimidazole]
–	–	≤ 10 µM	≤ 10 µM	–	≤ 10 µM	≤ 10 µM	–	–	–	COCCOc1ccc(F)c(C(=O)c2c[nH]c3ncc(Cl)cc23)c1Cl [P-2159, [2-Chloro-6-fluoro-3-(2-methoxy-ethoxy)-phenyl]-(5-chloro-1H-pyrrolo[2,3-b]pyridin-3-yl)-methanone]
–	–	≤ 10 µM	≤ 10 µM	–	–	≤ 10 µM	–	–	≤ 10 µM	O=C(c1c(F)ccc(OCc2ccc(C(F)(F)F)nc2)c1F)c1c[nH]c2ncc(Cl)cc12 [P-2163, (5-Chloro-1H-pyrrolo[2,3-b]pyridin-3-yl)-[2,6-difluoro-3-(6-trifluoromethyl-pyridin-3-ylmethoxy)-phenyl]-methanone]

Reference: patent US7872018B2, “Compounds and methods for kinase modulation, and indications therefor” (Plexxikon, Inc., priority 2006, dated 2011)
